Data reported in patent publication US9902934B2, “Human keratinocytes PTCH1 cell line” (GALDERMA RESEARCH & DEVELOPMENT, priority 2011, dated 2018).

What was measured:
[1] = tested on: SHH/PTCH pathway; experiment: Activation of PTCH1-luciferase reporter activity in SK PTCH1-Luc E6/E7 keratinocytes; type: cell-based, human; conditions: SK PTCH1-Luc E6/E7 cells, cultured 24 hours
Experimental: (§1) Purmorphamine (SMO agonist) and GDC-0449 (SMO antagonist) were diluted in DMSO at stock concentrations of 50 mM and 10 mM, respectively. To avoid side effects and toxicity, the final concentration of DMSO was fixed to 0.1% DMSO.
(§2) Lysis buffer and luciferase reagents were from the Steady-Glo® Luciferase Assay System kit (Promega, #E2520). Plates were read on a […] (TopCount, Perkin Elmer).
(§3) Experimental conditions of activation using SMO agonist of the PTCH1-Luc-E6 E7 reporter cells were first set up for optimisation. The SK PTCH1-Luc E6/E7 cells were plated in 96-well at various densities (5000 to 50000 cells/well) in opaque plates (Greiner, ref: 655083). In parallel, in order to follow cell growth, confluency, and lysis, the cell line was also seeded in transparent 96 wells plates (Greiner 655098). Serial dilutions of purmorphamine were prepared (0.2 nM<Conc.<50 μM). Results were matched with EC50 and IC50 values obtained in the SHH-Light II cell line.
Once experimental conditions optimized, SK PTCH1-Luc E6/E7 cells were plated at 45.000 cells per well, culture for 24 hours then treated for 48 hours by serial dilutions of purmorphamine. Each condition was done in duplicate and the experiment was performed at least twice. SK PTCH1-Luc E6/E7 cells responded to activation of the SHH/PTCH pathway when treated with purmorphamine and the EC50 value was determined at 1 μM (FIG. 3).

[2] = tested on: SHH/PTCH pathway; experiment: Inhibition of purmorphamine-induced luciferase activity in SK PTCH1-Luc E6/E7 keratinocytes; type: cell-based; conditions: Homo sapiens, Keratinocyte, SK PTCH1-Luc E6/E7 cells, co-treatment 48 hours with 2.5 μM purmorphamine (EC80)
Experimental: as §1, §2, §3
Co-treatment of SK PTCH1-Luc E6/E7 cells with purmorphamine and GDC-0449 led to the inhibition of the luciferase activity (FIG. 5). Under these circumstances, the IC50 of GDC-0449 was determined at 0.2 μM.

SMILES: c1ccc2c(Oc3nc(Nc4ccc(N5CCOCC5)cc4)c4ncn(C5CCCCC5)c4n3)cccc2c1 [purmorphamine, Purmorphamine]
- EC50 ([1]; Homo sapiens, Keratinocyte, 45.000 cells per well, treated 48 hours): 1000 nM
- effective concentration for 80% activation (EC80) ([1]; 45.000 cells/well, treated 48 hrs): 2500 nM

SMILES: CS(=O)(=O)c1ccc(C(=O)Nc2ccc(Cl)c(-c3ccccn3)c2)c(Cl)c1 [GDC-0449]
- IC50 [2]: 200 nM
